Results from US4012367A, “Anti-ulcer polypeptides containing L-aspartic acid and intermediates thereto” (G. D. Searle & Co., priority 1976, dated 1977).
Non-standard residues stand in square brackets, D forms with d. Residues, ends and D or L forms follow the SMILES beside them. *: point of attachment. Boc = CC(C)(C)OC(=O)*

Tested on: gastric acid secretion induced by the administration of pentagastrin
Assay: Inhibition of pentagastrin-induced gastric acid secretion in anesthetized rats with perfused stomach (modified Ghosh and Schild)
Assay type: in vivo
Parameters: key to rating in assay: antagonism of the secretory response induced by pentagastrin: A test compound is considered active if the standard pentagastrin response is blocked to the extent of at least 50%
Details: urethane-anesthetized male Charles River rats, gastric effluent pH, pentagastrin 0.1 mcg./rat intravenously
Text: The compounds of the present invention are useful in consequence of their valuable pharmacological properties. They are, for example, gastric anti-secretory agents as evidenced by their ability to inhibit the gastric acid secretion induced by the administration of pentagastrin.
The assay utilized for detection of that property is a modification of the procedure described by Ghosh and Schild, J. Physiol., Lond., 128:35-36P (1955); Br. J. Pharmacol. Chemother., […]:54-61 (1958); and by Smith et al., Br. J. Pharmacol., 38:206-213 (1970). The details of that assay are as follows:
A group of male Charles River rats weighing 300-400 g. are anesthetized by the intramuscular administration of urethane at a dose of 1.5 g./kg. The trachea is exposed and cannulated and a polyethylene tube is passed through the esophagus into the cardiac junction of the stomach and is ligated in place in the neck, excluding the vagal nerves. The external jugular vein is exposed and cannulated to facilitate intravenous administration. The femoral artery is exposed and cannulated for recording of blood pressure. The abdomen is opened. […] The test compounds are evaluated for their ability to antagonize the secretory response induced by the administration of pentagastrin. […]

| Structure (SMILES) | inhibition of gastric acid secretion induced by pentagastrin (result in words) | rating in assay: antagonism of the secretory response induced by pentagastrin |
| --- | --- | --- |
| CSCC[C@H](NC(=O)OC(C)(C)C)C(=O)N[C@@H](CC(=O)O)C(=O)N[C@H](C)C(N)=O [N-t-butoxycarbonyl-L-methionyl-L-aspartyl-D-alanine amide] (Boc-Met-Asp-[dA]-NH2) | particularly active |  |
| CSCC[C@H](NC(=O)[C@H](Cc1c[nH]c2ccccc12)NC(=O)OC(C)(C)C)C(=O)N[C@@H](CC(=O)O)C(=O)N[C@H](C)C(N)=O [N-t-butoxycarbonyl-L-tryptophanyl-L-methionyl-L-aspartyl-D-alanine amide] (Boc-WMD[dA]-NH2) |  | active |
